Data reported in ChEMBL document CHEMBL4346717, “1,2,4-Triazole-quinoline/quinolone hybrids as potential anti-bacterial agents” (Eur J Med Chem, 2019).
Values after ≈ are worked out from the molar mass of the structure shown.

Key:
[1] = test system: Escherichia coli; assay: Antibacterial activity against Escherichia coli; assay type: functional
[2] = test system: Pseudomonas aeruginosa; assay: Antibacterial activity against Pseudomonas aeruginosa; assay type: functional
[3] = test system: Staphylococcus aureus; assay: Antibacterial activity against Staphylococcus aureus; assay type: functional
[4] = test system: Staphylococcus aureus; assay: Antibacterial activity against Staphylococcus aureus after 3 to 7 days by cup diffusion method; assay type: functional
[5] = test system: Bacillus subtilis; assay: Antibacterial activity against Bacillus subtilis after 3 to 7 days by cup diffusion method; assay type: functional
[6] = test system: Escherichia coli; assay: Antibacterial activity against Escherichia coli after 3 to 7 days by cup diffusion method; assay type: functional
[7] = test system: Pseudomonas aeruginosa; assay: Antibacterial activity against Pseudomonas aeruginosa after 3 to 7 days by cup diffusion method; assay type: functional
[8] = test system: Mycolicibacterium phlei; assay: Antibacterial activity against Mycobacterium phlei clinical isolate after 3 to 7 days by cup diffusion method; assay type: functional
[9] = test system: Aggregatibacter actinomycetemcomitans; assay: Antibacterial activity against Aggregatibacter actinomycetemcomitans ATCC 29524 after 3 to 7 days by cup diffusion method; assay type: functional
[10] = test system: Staphylococcus aureus; assay: Antibacterial activity against Staphylococcus aureus assessed as zone of inhibition at 10 mg/ml after 3 to 7 days by cup diffusion method; assay type: functional; conditions: read-out: IZ
[11] = test system: Bacillus subtilis; assay: Antibacterial activity against Bacillus subtilis assessed as zone of inhibition at 10 mg/ml after 3 to 7 days by cup diffusion method; assay type: functional; conditions: read-out: IZ
[12] = test system: Escherichia coli; assay: Antibacterial activity against Escherichia coli assessed as zone of inhibition at 10 mg/ml after 3 to 7 days by cup diffusion method; assay type: functional; conditions: read-out: IZ
[13] = test system: Pseudomonas aeruginosa; assay: Antibacterial activity against Pseudomonas aeruginosa assessed as zone of inhibition at 10 mg/ml after 3 to 7 days by cup diffusion method; assay type: functional; conditions: read-out: IZ
[14] = test system: Mycolicibacterium phlei; assay: Antibacterial activity against Mycobacterium phlei clinical isolate assessed as zone of inhibition at 10 mg/ml after 3 to 7 days by cup diffusion method; assay type: functional; conditions: read-out: IZ
[15] = test system: Aggregatibacter actinomycetemcomitans; assay: Antibacterial activity against Aggregatibacter actinomycetemcomitans ATCC 29524 assessed as zone of inhibition at 10 mg/ml after 3 to 7 days by cup diffusion method; assay type: functional; conditions: read-out: IZ
[16] = test system: Yersinia pseudotuberculosis; assay: Antibacterial activity against Yersinia pseudotuberculosis; assay type: functional
[17] = test system: Enterococcus faecalis; assay: Antibacterial activity against Enterococcus faecalis; assay type: functional
[18] = test system: Bacillus cereus; assay: Antibacterial activity against Bacillus cereus; assay type: functional
[19] = test system: Mycolicibacterium smegmatis; assay: Antibacterial activity against Mycobacterium smegmatis; assay type: functional
[20] = target: DNA gyrase (Escherichia coli, UniProt P0AES4+P0AES6); assay: Inhibition of Escherichia coli DNA gyrase super-coiling activity using pBR322 DNA as substrate after 30 mins by fluorescence assay; assay type: protein-complex assay
[21] = Staphylococcus aureus, read-out: MIC
[22] = Bacillus subtilis, read-out: MIC
[23] = Escherichia coli, read-out: MIC
[24] = Pseudomonas aeruginosa, read-out: MIC
[25] = Mycolicibacterium phlei, read-out: MIC
[26] = Aggregatibacter actinomycetemcomitans, ATCC 29524, read-out: MIC

Compound	MIC [1]	MIC [2]	MIC [3]	MIC [4, 21]	MIC [5, 22]	MIC [6, 23]	MIC [7, 24]	MIC [8, 25]	MIC [9, 26]	zone of inhibition at 10000 µg/mL [10]	zone of inhibition at 10000 µg/mL [11]	zone of inhibition at 10000 µg/mL [12]	zone of inhibition at 10000 µg/mL [13]	zone of inhibition at 10000 µg/mL [14]	zone of inhibition at 10000 µg/mL [15]	further results
Nn1c(S)nnc1Cn1c(=O)cc(-c2ccccc2)c2cc(Cl)ccc21	8 to 256 µg/mL (≈ 20.8 to 667 µM)	8 to 256 µg/mL (≈ 20.8 to 667 µM)	8 to 256 µg/mL (≈ 20.8 to 667 µM)	–	–	–	–	–	–	–	–	–	–	–	–	–
COc1ccc2c(c1)c(-c1ccccc1)cc(=O)n2Cc1nnc(S)n1N	8 to 256 µg/mL (≈ 21.1 to 675 µM)	8 to 256 µg/mL (≈ 21.1 to 675 µM)	8 to 256 µg/mL (≈ 21.1 to 675 µM)	–	–	–	–	–	–	–	–	–	–	–	–	–
CCn1cc(-c2nc(/N=C/c3ccc(OC)cc3)n[nH]2)c(=O)c2cc(Br)c(C)nc21	–	–	–	3.68 to 6.3 µM (≈ 1.72 to 2.94 µg/mL)	3.68 to 6.3 µM (≈ 1.72 to 2.94 µg/mL)	3.68 to 6.3 µM (≈ 1.72 to 2.94 µg/mL)	3.68 to 6.3 µM (≈ 1.72 to 2.94 µg/mL)	3.68 to 6.3 µM (≈ 1.72 to 2.94 µg/mL)	3.68 to 6.3 µM (≈ 1.72 to 2.94 µg/mL)	20 to 40 mm	20 to 40 mm	20 to 40 mm	20 to 40 mm	20 to 40 mm	20 to 40 mm	–
CCn1cc(C(=O)O)c(=O)c2cc(F)c(N3CCN(Cn4nc(N5CCN(c6ccc([N+](=O)[O-])cc6)CC5)n(Cc5ccccc5)c4=S)CC3)cc21	0.03 to 0.99 µg/mL (≈ 0.0412 to 1.36 µM)	0.03 to 0.99 µg/mL (≈ 0.0412 to 1.36 µM)	0.03 to 0.99 µg/mL (≈ 0.0412 to 1.36 µM)	–	–	–	–	–	–	–	–	–	–	–	–	MIC [16]: 0.03 to 0.99 µg/mL (≈ 0.0412 to 1.36 µM); MIC [17]: 0.03 to 0.99 µg/mL (≈ 0.0412 to 1.36 µM); MIC [18]: 0.03 to 0.99 µg/mL (≈ 0.0412 to 1.36 µM); MIC [19]: 0.03 to 0.99 µg/mL (≈ 0.0412 to 1.36 µM)
CCn1cc(-c2nc(NC(=O)CCl)n[nH]2)c(=O)c2cc(Br)c(C)nc21	–	–	–	3.68 to 6.3 µM (≈ 1.57 to 2.68 µg/mL)	3.68 to 6.3 µM (≈ 1.57 to 2.68 µg/mL)	3.68 to 6.3 µM (≈ 1.57 to 2.68 µg/mL)	3.68 to 6.3 µM (≈ 1.57 to 2.68 µg/mL)	3.68 to 6.3 µM (≈ 1.57 to 2.68 µg/mL)	3.68 to 6.3 µM (≈ 1.57 to 2.68 µg/mL)	20 to 40 mm	20 to 40 mm	20 to 40 mm	20 to 40 mm	20 to 40 mm	20 to 40 mm	–
Nn1c(S)nnc1Cn1c(=O)cc(-c2ccccc2)c2ccccc21	8 to 256 µg/mL (≈ 22.9 to 733 µM)	8 to 256 µg/mL (≈ 22.9 to 733 µM)	8 to 256 µg/mL (≈ 22.9 to 733 µM)	–	–	–	–	–	–	–	–	–	–	–	–	–
COc1ccc2c(-c3ccccc3)cc(=O)n(Cc3nnc(S)n3N)c2c1	8 to 256 µg/mL (≈ 21.1 to 675 µM)	8 to 256 µg/mL (≈ 21.1 to 675 µM)	8 to 256 µg/mL (≈ 21.1 to 675 µM)	–	–	–	–	–	–	–	–	–	–	–	–	–
CCn1cc(C(=O)O)c(=O)c2cc(F)c(N3CCN(Cn4nc(N5CCN(c6ccc([N+](=O)[O-])cc6)CC5)n(-c5ccccc5)c4=S)CC3)cc21	0.03 to 0.99 µg/mL (≈ 0.042 to 1.39 µM)	0.03 to 0.99 µg/mL (≈ 0.042 to 1.39 µM)	0.03 to 0.99 µg/mL (≈ 0.042 to 1.39 µM)	–	–	–	–	–	–	–	–	–	–	–	–	MIC [16]: 0.03 to 0.99 µg/mL (≈ 0.042 to 1.39 µM); MIC [17]: 0.03 to 0.99 µg/mL (≈ 0.042 to 1.39 µM); MIC [18]: 0.03 to 0.99 µg/mL (≈ 0.042 to 1.39 µM); MIC [19]: 0.03 to 0.99 µg/mL (≈ 0.042 to 1.39 µM)
CCn1cc(-c2nc(/N=C/c3ccc(Cl)cc3Cl)n[nH]2)c(=O)c2ccc(C)nc21	–	–	–	–	–	–	–	–	–	20 to 40 mm	20 to 40 mm	20 to 40 mm	20 to 40 mm	20 to 40 mm	20 to 40 mm	MIC [4]: >=0.031 - 32 ug ml-1; MIC [5]: >=0.031 - 32 ug ml-1; MIC [6]: >=0.031 - 32 ug ml-1; MIC [7]: >=0.031 - 32 ug ml-1; MIC [8]: >=0.031 - 32 ug ml-1; MIC [9]: >=0.031 - 32 ug ml-1
CCn1cc(-c2nc(NC(=O)c3ccc(Cl)cc3)n[nH]2)c(=O)c2ccc(C)nc21	–	–	–	–	–	–	–	–	–	20 to 40 mm	20 to 40 mm	20 to 40 mm	20 to 40 mm	20 to 40 mm	20 to 40 mm	MIC [4]: >=0.031 - 32 ug ml-1; MIC [5]: >=0.031 - 32 ug ml-1; MIC [6]: >=0.031 - 32 ug ml-1; MIC [7]: >=0.031 - 32 ug ml-1; MIC [8]: >=0.031 - 32 ug ml-1; MIC [9]: >=0.031 - 32 ug ml-1
Cc1ccc2c(c1)c(-c1ccccc1)cc(=O)n2Cc1nnc(S)n1N	8 to 256 µg/mL (≈ 22 to 704 µM)	8 to 256 µg/mL (≈ 22 to 704 µM)	8 to 256 µg/mL (≈ 22 to 704 µM)	–	–	–	–	–	–	–	–	–	–	–	–	–
CCn1cc(-c2nc(NC(=O)c3ccc(OC)cc3)n[nH]2)c(=O)c2cc(Br)c(C)nc21	–	–	–	3.68 to 6.3 µM (≈ 1.78 to 3.04 µg/mL)	3.68 to 6.3 µM (≈ 1.78 to 3.04 µg/mL)	3.68 to 6.3 µM (≈ 1.78 to 3.04 µg/mL)	3.68 to 6.3 µM (≈ 1.78 to 3.04 µg/mL)	3.68 to 6.3 µM (≈ 1.78 to 3.04 µg/mL)	3.68 to 6.3 µM (≈ 1.78 to 3.04 µg/mL)	20 to 40 mm	20 to 40 mm	20 to 40 mm	20 to 40 mm	20 to 40 mm	20 to 40 mm	–
CCn1cc(-c2nc(NC(=O)c3ccc(F)cc3)n[nH]2)c(=O)c2cc(Br)c(C)nc21	–	–	–	3.68 to 6.3 µM (≈ 1.73 to 2.97 µg/mL)	3.68 to 6.3 µM (≈ 1.73 to 2.97 µg/mL)	3.68 to 6.3 µM (≈ 1.73 to 2.97 µg/mL)	3.68 to 6.3 µM (≈ 1.73 to 2.97 µg/mL)	3.68 to 6.3 µM (≈ 1.73 to 2.97 µg/mL)	3.68 to 6.3 µM (≈ 1.73 to 2.97 µg/mL)	20 to 40 mm	20 to 40 mm	20 to 40 mm	20 to 40 mm	20 to 40 mm	20 to 40 mm	–
CCn1cc(-c2nc(NC(=O)c3ccccc3)n[nH]2)c(=O)c2cc(Br)c(C)nc21	–	–	–	3.68 to 6.3 µM (≈ 1.67 to 2.86 µg/mL)	3.68 to 6.3 µM (≈ 1.67 to 2.86 µg/mL)	3.68 to 6.3 µM (≈ 1.67 to 2.86 µg/mL)	3.68 to 6.3 µM (≈ 1.67 to 2.86 µg/mL)	3.68 to 6.3 µM (≈ 1.67 to 2.86 µg/mL)	3.68 to 6.3 µM (≈ 1.67 to 2.86 µg/mL)	20 to 40 mm	20 to 40 mm	20 to 40 mm	20 to 40 mm	20 to 40 mm	20 to 40 mm	IC50 [20]: 4.28 µM
